Among the data in ChEMBL document CHEMBL1201862, “PubChem BioAssay data set” (2004) are IC50 values, retold here.

Assay [1] deals with T1, Nucleotide-binding oligomerization domain-containing protein 1 (Homo sapiens, UniProt Q9Y239).
T1 sequence (Q9Y239 whole entry): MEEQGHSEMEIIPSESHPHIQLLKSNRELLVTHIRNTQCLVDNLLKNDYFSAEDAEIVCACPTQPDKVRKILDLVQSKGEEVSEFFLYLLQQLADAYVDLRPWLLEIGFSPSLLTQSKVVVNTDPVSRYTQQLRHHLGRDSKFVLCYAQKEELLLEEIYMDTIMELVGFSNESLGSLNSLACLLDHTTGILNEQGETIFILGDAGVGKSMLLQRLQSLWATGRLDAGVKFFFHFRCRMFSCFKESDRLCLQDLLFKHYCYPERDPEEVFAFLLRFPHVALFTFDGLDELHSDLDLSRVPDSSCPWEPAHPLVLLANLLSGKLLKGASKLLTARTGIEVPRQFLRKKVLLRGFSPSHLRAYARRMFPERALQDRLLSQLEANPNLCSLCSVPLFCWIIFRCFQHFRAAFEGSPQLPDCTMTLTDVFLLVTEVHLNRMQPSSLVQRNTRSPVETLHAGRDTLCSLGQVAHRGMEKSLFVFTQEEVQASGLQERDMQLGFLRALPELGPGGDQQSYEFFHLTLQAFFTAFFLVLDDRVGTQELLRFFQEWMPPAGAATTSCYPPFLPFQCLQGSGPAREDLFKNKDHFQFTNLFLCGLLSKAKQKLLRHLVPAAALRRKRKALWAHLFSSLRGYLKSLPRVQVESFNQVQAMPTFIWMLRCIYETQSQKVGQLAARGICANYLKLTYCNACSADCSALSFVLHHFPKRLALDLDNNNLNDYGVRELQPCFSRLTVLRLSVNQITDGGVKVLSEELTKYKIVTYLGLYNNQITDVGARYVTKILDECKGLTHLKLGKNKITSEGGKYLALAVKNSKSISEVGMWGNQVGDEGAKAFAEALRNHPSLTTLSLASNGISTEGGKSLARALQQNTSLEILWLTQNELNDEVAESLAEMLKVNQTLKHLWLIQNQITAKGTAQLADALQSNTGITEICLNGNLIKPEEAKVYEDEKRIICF
Kind of assay: SAR analysis of compounds that inhibit NOD1 - Set 3. [Related pubchem assays (depositor defined):AID1566, AID1575, AID1578, AID1849, AID1852, AID2333, AID2335, AID2466]. In kind it is functional.

Assay [2] has as its target T1, Nucleotide-binding oligomerization domain-containing protein 1. Kind of assay: SAR analysis of compounds that inhibit NOD1 - Set 2. [Related pubchem assays (depositor defined):AID1566, AID1575, AID1578, AID1849, AID1852, AID2333, AID2335, AID2798]. In kind it is functional.
Assay [3] relates to HEK293. Kind of assay: SAR analysis of compounds that are cytotoxic to HEK293 - Set 2. [Related pubchem assays (depositor defined):AID1575, AID1578, AID1849, AID2001, AID2333, AID2334, AID2335, AID2337, AID2800]. Format: functional, cell-based. The conditions noted are these: Homo sapiens.
In assay [4] the target is T2, Interleukin-8 (Homo sapiens, UniProt P10145).
T2 sequence (P10145 whole entry): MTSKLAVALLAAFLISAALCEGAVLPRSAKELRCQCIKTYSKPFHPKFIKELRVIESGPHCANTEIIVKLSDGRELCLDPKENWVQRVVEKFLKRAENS
Kind of assay: SAR analysis of GM-Tri-DAP induced IL-8 secretion in MCF-7/NOD1 cells - Set 2. [Related pubchem assays (depositor defined):AID1575, AID1578, AID2333]. Format: functional, cell-based.

The target in assay [5] is T2, Interleukin-8. Kind of assay: SAR analysis of Tumor necrosis factor alpha (TNF-alpha) induced IL-8 secretion in MCF-7/NOD1 cells - Set 2. [Related pubchem assays (depositor defined):AID1575, AID2250, AID2260]. Format: functional, cell-based.
Assay [6] deals with Nucleotide-binding oligomerization domain-containing protein 2 (Homo sapiens, UniProt Q9HC29). As to the kind of experiment: NOD2 inhibitors, SAR follow-up, set 2 (AID 2475). Format: functional.
Sequence of Nucleotide-binding oligomerization domain-containing protein 2 (Q9HC29 whole entry, the tested form may be a part): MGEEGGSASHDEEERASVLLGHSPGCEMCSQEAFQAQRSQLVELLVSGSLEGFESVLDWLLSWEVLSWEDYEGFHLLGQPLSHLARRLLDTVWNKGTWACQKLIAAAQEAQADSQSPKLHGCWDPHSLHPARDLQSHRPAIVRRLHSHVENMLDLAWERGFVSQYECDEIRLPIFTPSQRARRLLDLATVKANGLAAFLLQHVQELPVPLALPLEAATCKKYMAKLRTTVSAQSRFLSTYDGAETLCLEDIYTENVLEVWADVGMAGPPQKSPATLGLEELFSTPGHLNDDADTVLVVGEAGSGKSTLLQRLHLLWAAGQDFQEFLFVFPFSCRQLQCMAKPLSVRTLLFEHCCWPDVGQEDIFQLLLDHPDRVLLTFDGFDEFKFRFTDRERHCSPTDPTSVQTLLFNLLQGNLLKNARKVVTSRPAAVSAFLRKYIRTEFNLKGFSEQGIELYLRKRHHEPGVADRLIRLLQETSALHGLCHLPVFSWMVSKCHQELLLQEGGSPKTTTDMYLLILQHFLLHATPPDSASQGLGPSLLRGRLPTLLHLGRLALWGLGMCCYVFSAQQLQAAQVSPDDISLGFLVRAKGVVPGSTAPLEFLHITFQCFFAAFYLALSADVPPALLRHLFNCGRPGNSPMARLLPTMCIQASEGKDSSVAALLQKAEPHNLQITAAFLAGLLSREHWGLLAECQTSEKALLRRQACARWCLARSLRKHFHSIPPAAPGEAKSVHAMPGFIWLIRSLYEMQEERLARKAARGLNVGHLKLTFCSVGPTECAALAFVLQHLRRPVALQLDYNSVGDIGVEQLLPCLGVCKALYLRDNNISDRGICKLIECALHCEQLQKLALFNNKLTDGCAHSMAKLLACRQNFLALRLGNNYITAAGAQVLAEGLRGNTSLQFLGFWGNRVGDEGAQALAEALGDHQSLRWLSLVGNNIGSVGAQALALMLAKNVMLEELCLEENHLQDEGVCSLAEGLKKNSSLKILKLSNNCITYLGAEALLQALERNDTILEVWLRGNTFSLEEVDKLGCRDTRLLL
The subject of assay [7] is HEK293. As to the kind of experiment: SAR analysis of compounds that are cytotoxic to HEK293 - Set 3. [Related pubchem assays (depositor defined):AID1575, AID1578, AID1848, AID1849, AID2001, AID2333, AID2334, AID2335, AID2337, AID2469]. In kind it is functional, cell-based. The note with it: Homo sapiens.
In assay [8] the target is T1, Nucleotide-binding oligomerization domain-containing protein 1. Kind of assay: SAR analysis of NF-kappaB dependent luciferase using DAP as an inducer - Set 2. [Related pubchem assays (depositor defined):AID1566, AID1575, AID1578, AID1579, AID1849, AID1852, AID2264]. In kind it is functional.

Activity calls are given as the source filed them.

As usually defined, the IC50 is the point on the concentration scale where inhibition reaches its midpoint. With `CCCCn1c(SCC(=O)Nc2nnc(CC)s2)nc2c1c(=O)n(C)c(=O)n2C`, the IC50 is 9.39 µM (active) in assay [1]; 7.92 µM (active) in assay [2]; > 20 µM (inactive) in assay [3]; > 25 µM (inactive) in assay [4]; > 25 µM (inactive) in assay [5]; 7.19 µM (active) in assay [6]. The values for the IC50 in assay [7] and in assay [8] were > 20 µM (inactive) and > 25 µM (inactive), respectively.
